Tested on: latexin
Test: latexin mRNA by quantitative real-time PCR in leukemic cell lines after 5-aza-2′-deoxycytidine treatment
Type: cell-based, human
Conditions: for latexin gene expression: 2 μM for 4 days
Method: To measure the expression of latexin in leukemic cells, quantitative real-time PCR was performed. Identical numbers (200,000) of cells were used for total RNA extraction using RNeasy Mini kit (QIAGEN, Valencia, Calif.) according to the manufacture's instructions. Isolated total RNA was reverse transcribed into cDNA using random hexamers in TaqMan® reverse transcription solution (PN N8080234), and stored at −20° C. In real-time PCR reactions, primer and probe mix for human latexin were purchased from Applied Biosystems (Foster city, CA, USA). TaqMan® human glyceraldehyde-3-phosphate dehydrogenase (GAPDH) was served as an endogenous control to normalize latexin expression. PCR reactions were set up as per manufacturer's instructions using TaqMan® universal PCR master mix (PN 4304437). Analyses of gene expression were performed in single reporter assays in an ABI PRISM 7700 sequence detection system (PE Biosystems, Foster city, CA, USA).
To examine the correlation of promoter hypermethylation and latexin gene expression, leukemia cell lines shown to have a lack of or decrease in latexin expression were subjected to 5-aza-2′-deoxycytidine treatment. Cells were plated with 2 ? M 5-aza-2′-deoxycytidine (Sigma-Aldrich; St. Louis, Mo.), and incubated for 4 days. The medium and the drug were replaced every 24 hours, and cells were harvested for RNA and DNA extraction 4 days after treatment.

With `Nc1ncn([C@H]2C[C@H](O)[C@@H](CO)O2)c(=O)n1` [5-aza-2′-deoxycytidine] the latexin gene expression (HL-60, KG-1, SupB15 lines) was “significantly up-regulated”, the latexin gene expression (K562, Molt4, CCRF-CEM, J45.01, Jurkat, U937 (completely lacked latexin expression prior to treatment)) was “reactivated” and the latexin expression (human leukemia and lymphoma cell lines treated with the demethylating reagent) was “re-initiated or up-regulated”.

Source: patent US20100183585A1, “METHODS AND COMPOSITIONS FOR TREATING TUMORS AND METASTASES THROUGH THE MODULATION OF LATEXIN” (University of Kentucky Research Foundation, priority 2008, published 2010)
